From patent publication US11186606B2, “Compositions and methods of modulating the immune response by activating alpha protein kinase 1” (Shanghai Yao Yuan Biotechnology Co., Ltd., priority 2017, dated 2021)

How the values were obtained:
ALPK1 = ALPK1 (Homo sapiens, UniProt Q96QP1); assay: IL8 secretion in HEK293 cells (IL8 ELISA) as indicator of ALPK1 activation; conditions: for IL8 secretion in HEK293 cells: 4 hours
Protocol: We pre-mixed H1b-ADP with phosphatase inhibitor sodium orthovanadate (Na3VO4) before incubation with FBS.
In these experiments, serial dilutions of the compounds were added to the tissue culture media of HEK293 cells with (FIG. 27B, FIG. 28B, FIG. 29B) or without (FIG. 26, FIG. 27A, FIG. 28A, FIG. 29A) 10% FBS, as indicated in the figures. After 4 hours, the cell supernatant was collected and analyzed for IL8 concentration using IL8 ELISA (BD) as an indicator of ALPK1 activation.

CT26 cells = assay: CT26 tumor xenograft model, tumor volume; format: in vivo, BALB/c mice; conditions: Example 18: 50 nmol, injections days 7, 9, 11
Protocol: We used a CT26 tumor xenograft model to test the anti-cancer activity of H1b-ADP. Tumor cells (2×10^5 per 100 uL CT26 cells) were inoculated subcutaneously into the right flank of BALB/c mice. At day 6, mice whose tumors had reached 3-5 mm in diameter were randomized and grouped into three groups (n=8 each group), control, HMP-1bP (580 ug), and H1b-ADP (1.2 ug). Injections were performed using a total volume of 20 uL at days 6, 8, 10, 12, and 14 post inoculation. Tumor volumes were calculated every 2 days from caliper measurements of tumor dimension using the formula (L×W^2)/2, where L is the longer measurement.
To test whether H1b-ADP could augment an anti-tumor response by a checkpoint inhibitor, we tested the effects of co-administration with an anti-PD1 antibody. Tumor cells (2×10^5 per 100 μL CT26 cells) were inoculated subcutaneously into the left and right flanks of BALB/c mice. At day 7, mice whose tumors had reached 5 mm in diameter were randomized and grouped (n=8 each group) into the following four groups: anti-PD1 antibody; rat IgG; H1b-ADP+rat IgG; H1b-ADP+anti-PD1 antibody. We utilized RMP1-14 as the anti-PD1 antibody (10 mg/kg) and a rat IgG 2a (2A3) as the control IgG. Each of the anti-PD-1 antibody and the control IgG was administered intraperitoneally in a 200 μL volume on days 6, 10, 12, and 17 post-inoculation. H1b-ADP (6.2 μg) was intratumorally injected in a 20 μL volume at day 6, 8, 10, 12, and 15. Tumor volumes were calculated every 2 days from caliper measurements of tumor dimensions using the formula (L×W^2)/2, where L is the longer measurement. The results are shown in FIG. 13A for injected tumors and FIG. 13B for distant tumors. […]
The experiment was carried out as combo experiments of anti-PD1 except for the following variations. At day 6, mice whose tumors had reached 5 mm in diameter were randomized and grouped into the following four groups: c-di-AM(PS)2; PBS; H1b-ADP; H1b-ADP+c-di-AM(PS)2. We utilized c-di-AM(PS)2 as the STING agonist. Each of the c-di-AM(PS)2 (1 μg) and H1b-ADP (6.2 μg) was administered intratumorally in a 20 μL volume on days 6, 7, and 9 post-inoculation.
The experiment was carried out as combo experiments of anti-PD-1 except for the following variations. At day 6, mice whose tumors had reached 5 mm in diameter were randomized and grouped into the following four groups: anti-CD4 antibody (GK1.5 clone, BE0003-1, BioXcell); rat IgG; H1b-ADP+rat IgG; H1b-ADP+anti-CD4 antibody. Each of the anti-CD4 antibody (200 μg) and the control IgG (200 μg) was administered intraperitoneally in a 200 μL volume on days 3, 4, 8 post-inoculation. H1b-ADP (6.2 μg) was administered intratumorally in a 20 μL volume on days 6, 8, 10, 12, 14 post-inoculation.
The experiment was carried out as combo experiments of anti-PD-1 except for the following variations. At day 6, mice whose tumors had reached 5 mm in diameter were randomized and grouped into the following four groups: Resquimod; PBS; H1b-ADP; H1b-ADP+Resquimod. Resquimod (10 μg) and H1b-ADP (6.2 μg) were administered intratumorally in a 20 μL volume on days 6, 8, 11 post-inoculation.
We used a CT26 tumor xenograft model to test the anti-cancer activity of H1b-ADP derivative Compounds 1 and 2. Tumor cells (2×10^5 per 100 uL CT26 cells) were inoculated subcutaneously into the right flank of BALB/c mice. At day 7, mice whose tumors had reached 3-5 mm in diameter were randomized and grouped into three groups (n=9 each group), control, Compound 1 (50 nmol), and Compound 2 (50 nmol). Injections were performed using a total volume of 20 uL at days 7, 9, and 11 post inoculation. Tumor volumes were calculated every 2 days from caliper measurements of tumor dimension using the formula (L×W^2)/2, where L is the longer measurement.

Chain of ALPK1 (Q96QP1 whole entry): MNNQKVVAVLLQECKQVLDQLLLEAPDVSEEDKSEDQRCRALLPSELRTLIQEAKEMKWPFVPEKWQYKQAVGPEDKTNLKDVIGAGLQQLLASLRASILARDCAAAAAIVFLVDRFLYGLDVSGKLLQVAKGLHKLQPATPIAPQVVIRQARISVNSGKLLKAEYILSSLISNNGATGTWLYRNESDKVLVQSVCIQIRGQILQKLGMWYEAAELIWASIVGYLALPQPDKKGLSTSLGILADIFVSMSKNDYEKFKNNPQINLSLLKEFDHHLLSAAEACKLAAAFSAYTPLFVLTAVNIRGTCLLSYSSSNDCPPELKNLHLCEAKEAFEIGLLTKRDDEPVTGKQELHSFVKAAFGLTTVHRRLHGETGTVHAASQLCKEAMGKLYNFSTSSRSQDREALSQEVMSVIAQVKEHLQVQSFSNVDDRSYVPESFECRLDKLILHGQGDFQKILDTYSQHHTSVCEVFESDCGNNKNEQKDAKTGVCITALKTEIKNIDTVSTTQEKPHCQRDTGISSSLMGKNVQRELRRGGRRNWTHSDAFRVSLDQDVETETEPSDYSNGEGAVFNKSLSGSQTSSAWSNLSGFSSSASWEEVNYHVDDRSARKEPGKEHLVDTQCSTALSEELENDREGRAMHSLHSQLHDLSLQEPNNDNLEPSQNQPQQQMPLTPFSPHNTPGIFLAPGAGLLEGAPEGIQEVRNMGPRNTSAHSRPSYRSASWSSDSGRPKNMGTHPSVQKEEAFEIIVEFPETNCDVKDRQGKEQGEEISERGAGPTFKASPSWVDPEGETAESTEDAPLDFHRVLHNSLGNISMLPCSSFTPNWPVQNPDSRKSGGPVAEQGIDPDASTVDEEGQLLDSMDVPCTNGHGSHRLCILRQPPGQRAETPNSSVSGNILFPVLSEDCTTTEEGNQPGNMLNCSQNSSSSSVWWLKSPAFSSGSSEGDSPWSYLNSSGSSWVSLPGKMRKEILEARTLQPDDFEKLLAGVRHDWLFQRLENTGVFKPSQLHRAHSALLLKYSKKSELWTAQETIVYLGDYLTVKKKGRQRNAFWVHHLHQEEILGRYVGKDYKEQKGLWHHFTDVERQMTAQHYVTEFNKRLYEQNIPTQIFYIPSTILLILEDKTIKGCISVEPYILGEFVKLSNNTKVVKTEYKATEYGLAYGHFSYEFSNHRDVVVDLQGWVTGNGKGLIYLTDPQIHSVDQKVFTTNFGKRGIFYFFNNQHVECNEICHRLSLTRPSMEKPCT

SMILES	resistance to serum degradation (ALPK1; compare without FBS and with 10% FBS (FIG. 27A and FIG. 27B))	IL8 secretion in HEK293 cells (ALPK1; with 10% FBS)	IL8 secretion in HEK293 cells (ALPK1; without FBS)	tumor growth (CT26 cells)
CC(=O)OC[C@@H](OC(C)=O)[C@H]1O[C@@H](OP(=O)(O)OP(O)(=S)OC[C@H]2O[C@@H](n3cnc4c(N)ncnc43)[C@H](O)[C@@H]2O)[C@@H](OC(C)=O)[C@@H](OC(C)=O)[C@@H]1OC(C)=O (stereo partly drawn) [Compound 15, (2S,3S,4S,5R,6R)-2-(((((((2R,3S,4R,5R)-5-(6-amino-9H-purin-9-yl)-3,4-dihydroxytetrahydrofuran-2-yl)methoxy)(hydroxy)phosphorothioyl)oxy)(hydroxy)phosphoryl)oxy)-6-((R)-1,2-diacetoxyethyl)tetrahydro-2H-pyran-3,4,5-triyl triacetate]	unexpected resistance to serum degradation	activate IL8 secretion	activate IL8 secretion	
Nc1ncnc2c1ncn2[C@@H]1O[C@H](COP(=O)(O)OP(=O)(O)O[C@@H]2OC([C@@H](O)CO)[C@@H](O)C(O)C2O)C(O)C1O (stereo partly drawn) [Compound 22, Adenosine-5′-(L-glycero-β-D-mannoheptopyranosyl) diphosphate]		increased IL8 secretion	increased IL8 secretion	
COC1C(OC)[C@@H](COP(=O)(O)OP(=O)(O)O[C@@H]2OC([C@H](O)CO)[C@@H](O)C(O)C2O)O[C@H]1n1cnc2c(N)ncnc21 (stereo partly drawn) [Compound 14, Adenosine-2′3′-dimethoxy-5′-(D-glycero-β-D-mannoheptopyranosyl) diphosphate]		increased IL8 secretion	increased IL8 secretion	
CO[C@@H]1[C@H](OC)[C@@H](COP(=O)(O)OP(=O)(O)O[C@@H]2O[C@H]([C@@H](COC(C)=O)OC(C)=O)[C@@H](OC(C)=O)[C@H](OC(C)=O)[C@@H]2OC(C)=O)O[C@H]1n1cnc2c(N)ncnc21 [Compound 13, (2S,3S,4S,5R,6R)-2-(((((((2R,3R,4R,5R)-5-(6-amino-9H-purin-9-yl)-3,4-dimethoxytetrahydrofuran-2-yl)methoxy)(hydroxy)phosphoryl)oxy)(hydroxy)phosphoryl)oxy)-6-((R)-1,2-diacetoxyethyl)tetrahydro-2H-pyran-3,4,5-triyl triacetate]		increased IL8 secretion	increased IL8 secretion	
Nc1ncnc2c1ncn2[C@@H]1O[C@H](COP(=O)(O)OP(=O)(O)O[C@@H]2OC([C@H](O)CO)[C@@H](O)C(O)C2O)C(F)C1O (stereo partly drawn) [Compound 2, Adenosine-3′-fluoro-5′-(D-glycero-β-D-mannoheptopyranosyl) diphosphate]			activate IL8 secretion	reduced tumor growth
CC(=O)OC[C@H](F)[C@H]1O[C@@H](OP(=O)(O)OP(=O)(O)OC[C@H]2O[C@@H](n3cnc4c(N)ncnc43)[C@H](O)[C@@H]2O)[C@@H](OC(C)=O)[C@@H](OC(C)=O)[C@@H]1OC(C)=O [Compound 3, (2S,3S,4S,5S,6S)-2-((S)-2-acetoxy-1-fluoroethyl)-6-(((((((2R,3S,4R,5R)-5-(6-amino-9H-purin-9-yl)-3,4-dihydroxytetrahydrofuran-2-yl)methoxy)(hydroxy)phosphoryl)oxy)(hydroxy)phosphoryl)oxy)tetrahydro-2H-pyran-3,4,5-triyl triacetate]		activate IL8 secretion	activate IL8 secretion	
CC(=O)OC[C@@H](OC(C)=O)[C@H]1O[C@@H](OP(=O)(O)OP(=O)(O)OC[C@@]2(F)O[C@@H](n3cnc4c(N)ncnc43)[C@@H]3OC(C)(C)O[C@@H]32)[C@@H](OC(C)=O)[C@@H](OC(C)=O)[C@@H]1OC(C)=O [Compound 19, (2S,3S,4S,5R,6R)-2-(((((((3aS,4S,6R,6aR)-6-(6-amino-9H-purin-9-yl)-4-fluoro-2,2-dimethyltetrahydrofuro[3,4-d][1,3]dioxol-4-yl)methoxy)(hydroxy)phosphoryl)oxy)(hydroxy)phosphoryl)oxy)-6-((R)-1,2-diacetoxyethyl)tetrahydro-2H-pyran-3,4,5-triyl triacetate]		activate IL8 secretion	activate IL8 secretion	
CC(=O)OC[C@H]1O[C@@H](OP(=O)(O)OP(=O)(O)OC[C@H]2O[C@@H](n3cnc4c(N)ncnc43)[C@H](O)[C@@H]2O)[C@@H](OC(C)=O)[C@@H](OC(C)=O)[C@@H]1OC(C)=O [Compound 5, (2R,3R,4S,5S,6S)-2-(acetoxymethyl)-6-(((((((2R,3S,4R,5R)-5-(6-amino-9H-purin-9-yl)-3,4-dihydroxytetrahydrofuran-2-yl)methoxy)(hydroxy)phosphoryl)oxy)(hydroxy)phosphoryl)oxy)tetrahydro-2H-pyran-3,4,5-triyl triacetate]		increased IL8 secretion	increased IL8 secretion	
Nc1ncnc2c1ncn2[C@@H]1O[C@H](COP(O)(=S)OP(=O)(O)O[C@@H]2OC([C@H](O)CO)[C@@H](O)C(O)C2O)C(O)C1O (stereo partly shown) [Compound 16]		increased IL8 secretion	increased IL8 secretion	
CC(=O)OC[C@@H](OC(C)=O)[C@H]1O[C@@H](OP(=O)(O)OP(=O)(O)OC[C@H]2O[C@@H](n3cnc4c(N)ncnc43)[C@H](O)[C@H]2F)[C@@H](OC(C)=O)[C@@H](OC(C)=O)[C@@H]1OC(C)=O [Compound 17, (2S,3S,4S,5R,6R)-2-(((((((2R,3R,4S,5R)-5-(6-amino-9H-purin-9-yl)-3-fluoro-4-hydroxytetrahydrofuran-2-yl)methoxy)(hydroxy)phosphoryl)oxy)(hydroxy)phosphoryl)oxy)-6-((R)-1,2-diacetoxyethyl)tetrahydro-2H-pyran-3,4,5-triyl triacetate]		increased IL8 secretion	increased IL8 secretion	
CC(=O)OC[C@H](OC(C)=O)[C@H]1O[C@@H](OP(=O)(O)OP(=O)(O)OC[C@H]2O[C@@H](n3cnc4c(N)ncnc43)[C@H](O)[C@@H]2O)[C@@H](OC(C)=O)[C@@H](OC(C)=O)[C@@H]1OC(C)=O [Compound 21, (2S,3S,4S,5R,6R)-2-(((((((2R,3S,4R,5R)-5-(6-amino-9H-purin-9-yl)-3,4-dihydroxytetrahydrofuran-2-yl)methoxy)(hydroxy)phosphoryl)oxy)(hydroxy)phosphoryl)oxy)-6-((S)-1,2-diacetoxyethyl)tetrahydro-2H-pyran-3,4,5-triyl triacetate]		increased IL8 secretion	increased IL8 secretion	
CC(=O)OC[C@@H](OC(C)=O)[C@H]1O[C@@H](OP(=O)(O)OP(=O)(O)OC[C@@]2(F)O[C@@H](n3cnc4c(N)ncnc43)[C@H](O)[C@@H]2O)[C@@H](OC(C)=O)[C@@H](OC(C)=O)[C@@H]1OC(C)=O [Compound 20, (2S,3S,4S,5R,6R)-2-(((((((2S,3S,4R,5R)-5-(6-amino-9H-purin-9-yl)-2-fluoro-3,4-dihydroxytetrahydrofuran-2-yl)methoxy)(hydroxy)phosphoryl)oxy)(hydroxy)phosphoryl)oxy)-6-((R)-1,2-diacetoxyethyl)tetrahydro-2H-pyran-3,4,5-triyl triacetate]		activate IL8 secretion	activate IL8 secretion	
